Reference: paper PMC7758399, “Phosphoglucoisomerase Is an Important Regulatory Enzyme in Partitioning Carbon out of the Calvin-Benson Cycle” (Frontiers in Plant Science, 2020)
Where two headings read alike, the source gives them in different places.

Columns and labels:
Type in all cases: biochemical
[1] = target: T1, plastidic AtPGI (PGI1) (Arabidopsis thaliana, UniProt Q8H103); test: G6PDH-coupled spectrophotometric assay, non-linear least squares fit; conditions: F6P to G6P direction, F6P 0-0.98 mM, 50 mM bicine pH 7.8, 4.8 mM DTT, 0.6 mM NADP+, read-out: F6P G6P / Plastidic PGI
T1 construct: N-terminal His-tag, plastid targeting peptide removed, pET11a, E. coli BL21, Ni-NTA purified
T1 sequence (Q8H103 49-613): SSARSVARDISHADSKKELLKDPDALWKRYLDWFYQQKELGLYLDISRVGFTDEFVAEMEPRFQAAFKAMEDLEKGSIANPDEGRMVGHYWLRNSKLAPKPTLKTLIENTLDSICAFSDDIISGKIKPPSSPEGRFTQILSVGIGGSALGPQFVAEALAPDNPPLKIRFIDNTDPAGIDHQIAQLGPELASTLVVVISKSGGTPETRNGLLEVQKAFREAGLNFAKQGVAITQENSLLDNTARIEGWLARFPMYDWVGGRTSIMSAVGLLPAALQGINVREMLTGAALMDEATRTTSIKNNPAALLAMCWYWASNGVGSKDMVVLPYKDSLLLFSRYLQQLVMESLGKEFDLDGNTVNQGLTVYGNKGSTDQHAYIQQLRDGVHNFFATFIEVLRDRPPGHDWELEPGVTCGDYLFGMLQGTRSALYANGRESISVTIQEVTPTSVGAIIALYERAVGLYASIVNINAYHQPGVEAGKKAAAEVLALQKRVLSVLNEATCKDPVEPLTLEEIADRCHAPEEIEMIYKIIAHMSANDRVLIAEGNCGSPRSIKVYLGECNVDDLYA
Excerpt: G6PDH-coupled spectrophotometric assay, non-linear least squares fit on plastidic AtPGI (PGI1)

[2] = target: T2, cytosolic AtPGI (PGI2) (Arabidopsis thaliana, UniProt P34795); test: as above; conditions: F6P to G6P direction, F6P 0-0.98 mM, 50 mM bicine pH 7.8, 4.8 mM DTT, 0.6 mM NADP+, read-out: F6P G6P / Cytosolic PGI
T2 construct: gene PGIC; N-terminal His-tag, pET11a, E. coli BL21, Ni-NTA purified
T2 sequence (P34795 1-560): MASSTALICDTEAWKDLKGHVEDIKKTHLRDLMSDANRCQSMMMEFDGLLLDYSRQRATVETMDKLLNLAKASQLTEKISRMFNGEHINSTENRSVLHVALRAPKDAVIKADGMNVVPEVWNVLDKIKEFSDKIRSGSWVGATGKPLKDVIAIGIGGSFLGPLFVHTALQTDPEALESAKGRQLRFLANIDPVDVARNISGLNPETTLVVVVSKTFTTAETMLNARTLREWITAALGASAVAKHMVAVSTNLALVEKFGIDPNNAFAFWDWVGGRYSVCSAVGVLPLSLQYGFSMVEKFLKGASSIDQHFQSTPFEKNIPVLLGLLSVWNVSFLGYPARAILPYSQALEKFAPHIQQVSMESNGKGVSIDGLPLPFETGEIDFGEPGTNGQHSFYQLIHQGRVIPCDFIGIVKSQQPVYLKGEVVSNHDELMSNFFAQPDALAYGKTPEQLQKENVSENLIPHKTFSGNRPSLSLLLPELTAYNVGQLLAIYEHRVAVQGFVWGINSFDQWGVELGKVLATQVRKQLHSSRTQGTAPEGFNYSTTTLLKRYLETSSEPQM
Excerpt: G6PDH-coupled spectrophotometric assay, non-linear least squares fit on cytosolic AtPGI (PGI2)

[3] = target: T2, cytosolic AtPGI (PGI2); test: G6PDH-coupled spectrophotometric assay, Hill function fit; conditions: F6P to G6P direction; 50 mM bicine pH 7.8, 4.8 mM DTT, 0.6 mM NADP+; table and text disagree, table columns possibly interchanged; read-out: F6P G6P / Cytosolic PGI
Excerpt: G6PDH-coupled spectrophotometric assay, Hill function fit on cytosolic AtPGI (PGI2)

[4] = target: T3, plastidic SoPGI (Spinacia oleracea, UniProt O82058); test: PGI assay on lysed isolated chloroplasts; conditions: F6P to G6P direction; light-treated leaves (dark-treated also measured)
T3 construct: gene GPIP; native, lysed Percoll-isolated chloroplasts from market spinach leaves, light or dark treated
T3 sequence (O82058 51-618): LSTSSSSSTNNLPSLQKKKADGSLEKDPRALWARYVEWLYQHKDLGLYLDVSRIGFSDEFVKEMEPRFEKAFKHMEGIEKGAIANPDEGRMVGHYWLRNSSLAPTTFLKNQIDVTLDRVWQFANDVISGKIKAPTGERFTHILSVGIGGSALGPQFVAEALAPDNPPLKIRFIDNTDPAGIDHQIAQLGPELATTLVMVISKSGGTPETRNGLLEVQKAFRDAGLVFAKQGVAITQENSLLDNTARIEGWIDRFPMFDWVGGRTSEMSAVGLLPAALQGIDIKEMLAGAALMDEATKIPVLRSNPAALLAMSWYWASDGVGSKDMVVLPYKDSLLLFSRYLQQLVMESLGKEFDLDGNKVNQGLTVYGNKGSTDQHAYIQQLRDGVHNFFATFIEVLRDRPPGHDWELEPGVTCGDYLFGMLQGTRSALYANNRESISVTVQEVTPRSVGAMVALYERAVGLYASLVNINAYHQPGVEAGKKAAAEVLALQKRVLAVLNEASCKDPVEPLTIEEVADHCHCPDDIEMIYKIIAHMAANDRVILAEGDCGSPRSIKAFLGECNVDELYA

[5] = target: T1, plastidic AtPGI (PGI1); test: G6PDH-coupled spectrophotometric assay, Hill function fit; conditions: F6P to G6P direction; 50 mM bicine pH 7.8, 4.8 mM DTT, 0.6 mM NADP+; read-out: F6P G6P / Plastidic PGI
Excerpt: G6PDH-coupled spectrophotometric assay, Hill function fit on plastidic AtPGI (PGI1)

[6] = target: T1, plastidic AtPGI (PGI1); test: phosphofructokinase-coupled LC-MS/MS assay of FBP, Hill function fit; conditions: G6P to F6P direction; 50 mM Tris pH 7.8, 2.5 mM MgCl2, 1 mM ATP, 5 mM DTT; table and text ratio disagree, table columns possibly interchanged; read-out: G6P F6P / Plastidic PGI
Excerpt: phosphofructokinase-coupled LC-MS/MS assay of FBP, Hill function fit on plastidic AtPGI (PGI1)

[7] = target: T2, cytosolic AtPGI (PGI2); test: as above; conditions: G6P to F6P direction; 50 mM Tris pH 7.8, 2.5 mM MgCl2, 1 mM ATP, 5 mM DTT; read-out: G6P F6P / Cytosolic PGI
Excerpt: phosphofructokinase-coupled LC-MS/MS assay of FBP, Hill function fit on cytosolic AtPGI (PGI2)

[8] = competitive with F6P except above 1.0 mM

O=C(O)[C@H](O)[C@@H](O)[C@H](O)[C@H](O)COP(=O)(O)O [6PG, 6-phosphogluconate]
Ki [1, 8]: 31 µM | Ki [2, 8]: 106 µM

O=C[C@H](O)[C@H](O)COP(=O)(O)O [E4P, erythrose 4-phosphate]
Ki [1]: 2.3 µM | Ki [2]: 1.5 µM

O=P(O)(O)OC[C@H]1OC(O)(CO)[C@@H](O)[C@@H]1O (stereo partly drawn) [F6P, fructose 6-phosphate]
Km [3]: 203 ± 12 µM | Km [4]: The Km of SoPGI for F6P did not change in the light or dark | Km [5]: 73 ± 80 µM

O=P(O)(O)OC[C@H]1OC(O)[C@H](O)[C@@H](O)[C@@H]1O (stereo partly drawn) [G6P, glucose 6-phosphate]
Km [6]: 164 ± 43 µM | Km [7]: 158 ± 85 µM
